# Experimental data as given in US8846845B2, “Bioabsorbable and biocompatible polyurethanes and polyamides for medical devices” (Bezwada Biomedical, LLC, priority 2005, dated 2014).
# Assay: In vitro hydrolysis of functionalized phenolics in pH 7.4 buffer at reflux, monitored by TLC
# Type: physicochemical
# Conditions: reflux temp. (100° C.); 500 mg compound in 50 ml pH 7.4 buffer solution; TLC against original phenolic as control
# Method: Selected compounds were examined for the rate of hydrolysis by conducting in vitro hydrolysis studies at reflux temp. (100° C.). For each experiment, 500 mg of a func-tionalized compound and 50 ml of pH 7.4 buffer solution (purchased from Aldrich Chemical) were charged into a 100 ml round bottom flask fitted with a condenser and the contents were refluxed. In vitro hydrolysis of the functionalized phenolics was monitored by thin layer chromatography (TLC) using corresponding starting material (original phenolic) as a control. In vitro hydrolysis was continued at reflux until the functionalized molecule hydrolyzed to the starting phenolic compound.
row,time in which the functionalized compound was hydrolyzed to the starting phenolic compound [h],SMILES
1,8,"COC(=O)COC(=O)COc1ccc(NC(C)=O)cc1 [Example 48, (4-Acetylaminophenoxy)acetic acid methoxycarbonyl methyl ester]"
2,40,"CC(Oc1ccc(N)cc1)C(=O)OCCOC(=O)C(C)Oc1ccc(N)cc1 (stereo not shown) [Example 32, 2-(4-Aminophenoxy)-propionic acid 2-[2-(4-aminophenoxy)-propionyloxy]-ethyl ester]"
3,3,"COC(=O)COC(=O)COc1ccc(N)cc1 [Example 45, (4-Aminophenoxy)-acetic acid methoxycarbonylmethyl ester]"

row,SMILES,time in which the functionalized compound was hydrolyzed to the starting phenolic compound [h]
1,"Nc1ccc(OCC(=O)OCCOC(=O)COc2ccc(N)cc2)cc1 [Example 25, (4-Amino-phenoxy)-acetic acid-2-[2-(4-amino-phenoxy)-acetoxy]-ethyl ester]",11.5
